Literature values in US20130310903A1, “Anti-Depression Light-Wave Device and Usage Thereof” (priority 2012, published 2013).
Read-outs that look alike come from different tables or passages of the source.

Details: 12-week administration; for CGI outcome Worse: share of patients

Fc1ccc([C@@H]2CCNC[C@H]2COc2ccc3c(c2)OCO3)cc1 [Paxil, Paroxetine]
CGI outcome Minimally (20 mg): 33%
CGI outcome Much Improved (20 mg): 18%
CGI outcome No Change (20 mg): 35%
CGI outcome Very Much (20 mg): 7%
CGI outcome Worse (20 mg): 7%
CGI outcome Minimally (40 mg): 29%
CGI outcome Much Improved (40 mg): 22%
CGI outcome No Change (40 mg): 22%
CGI outcome Very Much (40 mg): 20%
CGI outcome Worse (40 mg): 7%
CGI outcome Minimally (60 mg): 34%
CGI outcome Much Improved (60 mg): 24%
CGI outcome No Change (60 mg): 19%
CGI outcome Very Much (60 mg): 20%
CGI outcome Worse (60 mg): 3%
